Measured values as given in ChEMBL document CHEMBL1129789, “Dopamine D3 and D4 receptor antagonists: synthesis and structure--activity relationships of (S)-(+)-N-(1-Benzyl-3-pyrrolidinyl)-5-chloro-4- [(cyclopropylcarbonyl) amino]-2-methoxybenzamide (YM-43611) and related compounds” (J Med Chem, 1996).

Legend:
D(3) dopamine receptor = D(3) dopamine receptor (Rattus norvegicus, UniProt P19020); test: biochemical
Description: Binding affinity to rat Dopamine receptor D3 expressed in CHO cells was determined using [125 I] iodosulpride as radioligand

Mus musculus [1] = test: Compound was tested for inhibition of Apomorphine induced climbing in Mice on subcutaneous administration; type: functional; conditions: sc
D(4) dopamine receptor = molecular target: T1, D(4) dopamine receptor (Homo sapiens, UniProt P21917); test: biochemical
T1 sequence (P21917 whole entry): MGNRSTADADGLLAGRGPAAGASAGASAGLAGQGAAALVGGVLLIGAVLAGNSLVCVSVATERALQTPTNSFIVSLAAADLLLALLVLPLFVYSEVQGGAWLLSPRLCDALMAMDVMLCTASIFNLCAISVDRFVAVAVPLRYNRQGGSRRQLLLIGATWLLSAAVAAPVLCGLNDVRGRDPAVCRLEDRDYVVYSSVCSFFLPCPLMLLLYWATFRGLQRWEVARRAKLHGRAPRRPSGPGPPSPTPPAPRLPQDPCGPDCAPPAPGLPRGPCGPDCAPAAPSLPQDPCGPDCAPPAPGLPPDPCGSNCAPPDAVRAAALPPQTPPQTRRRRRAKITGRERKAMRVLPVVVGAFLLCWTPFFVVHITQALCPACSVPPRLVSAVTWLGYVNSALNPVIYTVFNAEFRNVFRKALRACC

Mus musculus [2] = test: Inhibition of Apomorphine induced climbing in mice administered sc; type: functional
Mus musculus [3] = organism: Mus musculus; test: Compound was tested for inhibition of Apomorphine induced climbing in Mice; type: functional
Adrenergic receptor beta = Adrenergic receptor beta (Rattus norvegicus, UniProt P18090+P10608+P26255); test: Compound was tested for the binding affinity against rat cortical Beta adrenergic receptor by Radio ligand [3H]dihydroalprenolol binding assay.; type: protein assay

Sequence of D(3) dopamine receptor (P19020 whole entry): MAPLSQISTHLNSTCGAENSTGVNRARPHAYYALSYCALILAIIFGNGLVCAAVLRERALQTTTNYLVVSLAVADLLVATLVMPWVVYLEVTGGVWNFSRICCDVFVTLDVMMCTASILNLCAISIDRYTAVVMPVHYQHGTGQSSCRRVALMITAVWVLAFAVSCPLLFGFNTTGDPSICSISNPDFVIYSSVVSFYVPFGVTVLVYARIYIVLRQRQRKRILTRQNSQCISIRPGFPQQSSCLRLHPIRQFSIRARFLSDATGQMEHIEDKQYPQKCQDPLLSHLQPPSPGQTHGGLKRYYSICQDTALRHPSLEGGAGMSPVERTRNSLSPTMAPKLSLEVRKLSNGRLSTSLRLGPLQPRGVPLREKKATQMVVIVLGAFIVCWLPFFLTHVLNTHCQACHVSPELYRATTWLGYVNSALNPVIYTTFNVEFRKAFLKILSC

SMILES	Ki (D(3) dopamine receptor)	Ki (D(4) dopamine receptor)	Ki (Adrenergic receptor beta)	ED50 (Mus musculus [1])	ED50 (Mus musculus [2])	ED50 (Mus musculus [3])
COc1cc(NC(=O)C2CCC2)c(Cl)cc1C(=O)N[C@H]1CCN(Cc2ccccc2)C1	36 nM	5.2 nM	–	0.14 mg/kg	–	–
COc1cc(NC(=O)C2CC2)c(Cl)cc1C(=O)N[C@@H]1CCN(Cc2ccccc2)C1	60 nM	5.6 nM	–	0.45 mg/kg	–	–
CNc1cc(OC)c(C(=O)N[C@H]2CCN(C3C4CCCC3CCC4)C2)cc1Cl (stereo partly drawn)	0.24 nM	0.67 nM	–	–	–	–
COc1cc(N)c(Cl)cc1C(=O)N[C@H]1CCN(Cc2ccccc2)C1	0.58 nM	–	–	–	0.071 mg/kg	–
COc1cc(NC(=O)C2CC2)c(Cl)cc1C(=O)N[C@H]1CCN(CCc2ccccc2)C1	33 nM	3.4 nM	–	–	–	–
COc1cc(NC(=O)C2CCCC2)c(Cl)cc1C(=O)N[C@H]1CCN(Cc2ccccc2)C1	55 nM	20 nM	–	0.28 mg/kg	–	–
COc1cc(NC(=O)C2CC2)c(Cl)cc1C(=O)N[C@H]1CCN(C2CCCCCC2)C1	1.5 nM	2.7 nM	–	–	–	–
COc1cc(NC(=O)C2CC2)c(Cl)cc1C(=O)N[C@H]1CCN(C2C3CC4CC(C3)CC2C4)C1 (stereo partly drawn)	1.7 nM	4.4 nM	–	> 10 mg/kg	–	–
COc1cc(NC(=O)C(C)C)c(Cl)cc1C(=O)N[C@H]1CCN(Cc2ccccc2)C1	15 nM	3 nM	–	–	–	–
COc1cc(NC(=O)C2CC2)c(Cl)cc1C(=O)N[C@H]1CCN(C2C3CCCC2CCC3)C1 (stereo partly drawn)	2.2 nM	3.8 nM	–	> 10 mg/kg	–	–
COc1cc(NC(=O)C2CCCC2)c(Cl)cc1C(=O)N[C@@H]1CCN(Cc2ccccc2)C1	150 nM	18 nM	–	–	–	–
COc1cc(NC(=O)C2CC2)c(Cl)cc1C(=O)N[C@H]1CCN(C2CCCCC2)C1	4.4 nM	2.1 nM	–	1.4 mg/kg	–	–
COc1cc(NC(=O)C2CC2)c(Cl)cc1C(=O)N[C@H]1CCN(CC2CCCCC2)C1	3.7 nM	3.3 nM	–	–	–	–
CN1CCN(C2=Nc3cc(Cl)ccc3Nc3ccccc32)CC1 [CLOZAPINE]	–	–	–	–	–	6.8 mg/kg
O=C(CCCN1CCC(O)(c2ccc(Cl)cc2)CC1)c1ccc(F)cc1 [HALOPERIDOL]	–	–	> 10000 nM	–	–	0.041 mg/kg
CNc1cc(OC)c(C(=O)N[C@H]2CCN(Cc3ccccc3)[C@H]2C)cc1Cl [NEMONAPRIDE]	–	–	–	0.012 mg/kg	–	–

More lines, main results first:

Ki (D(3) dopamine receptor)	Ki (D(4) dopamine receptor)	Ki (Adrenergic receptor beta)	SMILES	ED50 (Mus musculus [1])	ED50 (Mus musculus [2])	ED50 (Mus musculus [3])
100 nM	7 nM	–	COc1cc(NC(=O)C2CCC2)c(Cl)cc1C(=O)N[C@@H]1CCN(Cc2ccccc2)C1	–	–	–
1.9 nM	–	–	COc1cc(N)c(Cl)cc1C(=O)N[C@@H]1CCN(Cc2ccccc2)C1	–	–	–
5.1 nM	1.9 nM	–	COc1cc(NC(=O)C(F)(F)F)c(Cl)cc1C(=O)N[C@H]1CCN(Cc2ccccc2)C1	–	–	–
200 nM	87 nM	–	COc1cc(NC(=O)c2ccccc2)c(Cl)cc1C(=O)N[C@H]1CCN(Cc2ccccc2)C1	–	–	–
4.7 nM	1.3 nM	–	C=CC(=O)Nc1cc(OC)c(C(=O)N[C@H]2CCN(Cc3ccccc3)C2)cc1Cl	–	–	–
5.9 nM	1.5 nM	–	CCC(=O)Nc1cc(OC)c(C(=O)N[C@H]2CCN(Cc3ccccc3)C2)cc1Cl	0.31 mg/kg	–	–
200 nM	110 nM	–	COc1cc(NC(=O)C2CCCCC2)c(Cl)cc1C(=O)N[C@H]1CCN(Cc2ccccc2)C1	–	–	–
3000 nM	2200 nM	–	COc1cc(NC(=O)C2CC2)c(Cl)cc1C(=O)N[C@H]1CCNC1	> 30 mg/kg	–	–
